In patent US12263248B2, “Compounds and compositions for intracellular delivery of therapeutic agents” (ModernaTX, Inc., priority 2018, dated 2025):

Legend:
[1] = Particle size and polydispersity index of nanoparticle compositions (Zetasizer Nano ZS); format: physicochemical; conditions: for Size (nm): lipid:DSPC:cholesterol:PEG-DMG 50:10:38.5:1.5 mol %
In short: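 Nanoparticle compositions are diluted in 1×PBS, then size and polydispersity index are read on a Zetasizer Nano ZS instrument.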

[2] = Encapsulation efficiency of RNA (QUANT-IT RIBOGREEN RNA assay); format: physicochemical; conditions: for EE (%): Table 1A
In short: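 RiboGreen fluorescence (ex ~480, em ~520 nm) compared between intact samples and Triton X-100-lysed samples after 15 min at 37 °C in TE buffer, pH 7.5. Percent free RNA is the blank-corrected intact/disrupted ratio.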

[3] = Apparent (surface) pKa of the LNP formulation (TNS assay); format: physicochemical; conditions: Table 1A
In short: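 LNP (0.04 mg/mL mRNA) mixed with TNS reagent in 21 buffers spanning about pH 3-12, in triplicate; fluorescence plotted against pH as sigmoidal curve. Apparent pKa taken as […] curve inflection point; validated in 1× PBS and 20 mM Tris w/8% sucrose.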

luciferase (Luc) mRNA [4] = experiment: Luc expression, whole body bioluminescence after intravenous administration to mice; format: in vivo; conditions: mice, i.v., 0.5 mg/kg
In short: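 Luc mRNA nanoparticle formulations given intravenously to mice (n=6) at 0.5 mg/kg; whole-body bioluminescence imaged at 3, 6 and 24 h. CD-1 mice received IP D-luciferin (200 μL of 15 mg/mL) 15 min before imaging; total flux quantified by region of interest.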

luciferase (Luc) mRNA [5] = experiment: Luc expression in liver, lung, spleen and femur 6 hours after intravenous administration; format: in vivo; conditions: mice, 0.5 mpk; for Total Flux Femur / Total Flux Liver / Total Flux Lung / Total Flux Spleen: intravenous
In short: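 LNP-formulated mRNA given IV to mice (n=3) at 0.5 mpk; at 6 h, bioluminescence imaged ex vivo 15 min after IP D-luciferin (15 mg/mL, 200 μL), organs imaged within 25 min. Values are total flux by region of interest.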

IL-6, IP-10 = experiment: Cytokine induction in mice upon intravenous administration; format: in vivo; set-up: Cytokine induction IL-6 / Cytokine induction IP-10: unit not given here; conditions: intravenous, 0.5 mpk, 6 hours
In short: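 Mice dosed intravenously with nanoparticle compositions at 0.5 mpk; serum cytokine concentrations (IL-6, IP-10) measured at 6 hours. MC3 formulation and PBS controls run alongside.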

sC5b-9 = experiment: Complement activation in vitro (sC5b-9 levels); format: cell-based; conditions: human cells contacted in vitro
Description: Complement activation assists in the clearance of pathogens from an organism. As it is undesirable that a subject's body recognize a nanoparticle composition as a foreign invader, low complement system activation upon administration of such a composition is preferred. The complex sC5b-9 is a marker for the activation of the complement system. Thus, human cells were contacted in vitro with nanoparticle compositions according to Table 1A and were evaluated for sC5b-9 levels.

human hepatocytes = experiment: Metabolite profiling of Compound 18 with human hepatocytes; format: in vitro ADME; set-up: key to Detection in incubation: +: Detected; ND: Not detected; conditions: for Detection in incubation: Compound 18 (10 μM), human hepatocytes
Description: The results of metabolic profiling and characterization for compound 18 incubated with human hepatocytes or human plasma are summarized in Tables 41 and 42, respectively.

[6] = Metabolite identification of Compound 18 in human plasma; format: in vitro ADME; set-up: key to Detection in incubation: +: Detected; ND: Not detected; conditions: for Detection in incubation: Compound 18 (10 μM), human plasma
Description: Metabolite Identification: Compound 18 (10 μM) was incubated with human plasma (29.0 mg protein/incubation) in incubation mixtures (200 μL final incubation volume) that consisted of 50/50v/v neat plasma (undiluted)/substrate solution in 50 mM phosphate buffer, pH 7.4). The plasma was obtained from male and female donors and contained K2EDTA anticoagulant. Reactions were started by addition of the substrate solution to human plasma and were stopped at four designated time points (0, 30, 60 and 90 min) by the addition of 600 μL of stop reagent (acetonitrile). Stopped incubation samples were centrifuged (e.g., 10,000×g for 10 min at 10° C.) and the supernatant fractions were analyzed by LC-MS/MS to characterize the metabolites formed from compound 18. Additional incubations were performed with the positive control procaine (5 μM) to establish competency of the test system. Samples were analyzed by LC-MS/MS.

[7] = Lipid clearance from mouse tissues after weekly dosing; format: in vivo; conditions: 0.25 mg/kg mRNA on days 1, 8, and 15
Description: Repeat dosing of mRNA in an MC3-based LNP for a therapeutic indication would be expected to lead to accumulation of MC3 in tissues, based on the measured half-life. Therefore it was investigated whether the favorable single dose pharmacokinetics of compound 18 were maintained with weekly dosing. Clearance of MC3 and compound 18 from multiple mouse tissues was measured after dosing 0.05 mg/kg mRNA on day 1, 8 and 15 (FIG. 30A). Following dosing with MC3 LNPs, lipid was detected in liver, spleen, plasma, kidney, heart and lung, with liver and spleen containing the largest concentrations (FIG. 30A, for full panel of tissues see FIG. 35A). […] Compound 18 was also detected in plasma, lung, and kidney, but not in heart (FIG. 35A).
In vitro metabolite identification studies using compound 18 were also performed. […] The disappearance of parent compound 18 and the primary metabolite, compound 166, from mouse liver tissue was measured after dosing 0.25 mg/kg mRNA on days 1, 8, and 15.

[8] = N/P 3, i.v. bolus at 5 mpk, Sprague Dawley rats; 5 mg/kg
Description: Sprague Dawley rats were administered with nanoparticles of the disclosure via i.v. bolus at 5 mpk. The nanoparticle contained two mRNA encoding a broadly neutralizing influenza antibody in a 2:1 ratio.

hEPO mRNA = experiment: Pretreatment study in Cynomolgus monkeys (standard MC3 formulation, hEPO mRNA); format: in vivo; conditions: MC3 formulation once weekly for four weeks
Description: The effects of pretreatment to non-human primates were evaluated using a standard MC3 formulation including an mRNA encoding hEPO. Male monkeys were administered the nanoparticle composition once weekly for four weeks at a dose rate of 5 ml/kg/h and were pretreated with either methotrexate or dexamethasone.
As shown, in the absence of any pretreatment, maximal expression levels decreased nearly 70% over the course of the study.

Row | SMILES | PDI ([1]; Table 1A) | Size (nm) ([1]; Table 1A) | EE (%) [2] | pKa [3] | Total Flux 6 hours (luciferase (Luc) mRNA [4]; Luc mRNA) | Total Flux 24 hours (luciferase (Luc) mRNA [4]; Luc mRNA) | Total Flux Femur (luciferase (Luc) mRNA [5]) | Total Flux Liver (luciferase (Luc) mRNA [5]) | Total Flux Lung (luciferase (Luc) mRNA [5]) | Total Flux Spleen (luciferase (Luc) mRNA [5]) | Cytokine induction IL-6 (IL-6, IP-10) | Cytokine induction IP-10 (IL-6, IP-10) | Fold increase in sC5b-9 levels versus saline (sC5b-9) | further results
1 | CCCCCC/C=C\COC(=O)CCCCCCCN(CCO)CCCCCCCC(=O)OC/C=C\CCCCCC [Compound 139, Di((Z)-non-2-en-1-yl) 8,8′-((2-hydroxyethyl)azanediyl)dioctanoate] | 0.54 | 174.0 nm | 78.2% | 7.04 | 1.17E+07 | 5.89E+05 | 5.12E+04 | 8.27E+05 | 5.26E+04 | 2.10E+06 | 23.57 | 153.36 | 0.73 | Total Flux 3 hours (luciferase (Luc) mRNA [4]; Luc mRNA, 3 hours): 3.50E+07
2 | CCCCCCCCCCCOC(=O)CCCCCN(CCO)CCCCCC(=O)OCCCCCCCCCCC [Compound 141, Diundecyl 6,6′-((2-hydroxyethyl)azanediyl)dihexanoate] | 0.99 | 91.3 nm | 94.1% | 7.47 | 1.21E+06 | 3.49E+05 | 2.86E+04 | 1.59E+05 | 3.85E+04 | 6.29E+04 | 327.15 | 1072.04 | 1.81 | flux at all timepoints measured (luciferase (Luc) mRNA [4]; 3, 6 and 24 hour, in words): significantly lower flux; Flux in the liver (luciferase (Luc) mRNA [5]; i.v., in words): lowest; Flux in the spleen (luciferase (Luc) mRNA [5]; i.v., in words): lowest
3 | CCCCCCCCC(CCCCCCCC)OC(=O)CCCCCCCN(CCO)CCCCCCCC(=O)O [Compound 166, 8-((8-(Heptadecan-9-yloxy)-8-oxooctyl)(2-hydroxyethyl)amino)octanoic acid] | – | – | – | – | – | – | – | – | – | – | – | – | – | Proposed biotransformation (human hepatocytes; Compound 18 (10 μM) with human hepatocytes (1 million cells/mL)): Ester hydrolysis; Detection in incubation (human hepatocytes; 60 min): +; Detection in incubation (human hepatocytes; 120 min): +; Detection in incubation (human hepatocytes; 240 min): +; Proposed biotransformation ([6]; Compound 18 (10 μM) with human plasma (29.0 mg protein/incubation)): Ester hydrolysis; Detection in incubation ([6]; 30 min): +; Detection in incubation ([6]; 60 min): +; Detection in incubation ([6]; 90 min): +; disappearance from mouse liver tissue [7]: rapid clearance
4 | CCCCCCCCC(CC)OC(=O)CCCCCCCN(CCCCCCCC(=O)OC(CCCCCCCC)CCCCCCCC)CCCNc1c(NC)c(=O)c1=O (centres unmarked) [Compound 301, Heptadecan-9-yl 8-((3-((2-(methylamino)-3,4-dioxocyclobut-1-en-1-yl)amino)propyl)(8-oxo-8-(undecan-3-yloxy)octyl)amino)octanoate] | – | – | – | – | – | – | – | – | – | – | – | – | – | Diameter ([1]; N/P 3 (Table 43)): 68 nm; PDI ([1]; N/P 3 (Table 43)): 0.09; Diameter ([1]; N/P 5.8 (Table 43)): 69 nm; PDI ([1]; N/P 5.8 (Table 43)): 0.24; % EE ([2]; N/P 3 (Table 43)): 86%; % EE ([2]; N/P 5.8 (Table 43)): 96%; Clinical Observations [8]: signs of decreased activity
5 | CN(Cc1cnc2nc(N)nc(N)c2n1)c1ccc(C(=O)N[C@@H](CCC(=O)O)C(=O)O)cc1 [Methotrexate, methotrexate] | – | – | – | – | – | – | – | – | – | – | – | – | – | effect of pretreatment on hEPO protein expression (hEPO mRNA): did not confer any particular beneficial effect
